The values below come from article PMC9002334 (Virology, 2022).

One data set concerns HCoV-229E. Briefly: microbe, parasite or virus in culture. Format: cell-based, Human coronavirus 229E.
For data set [1], the target named is T1, SARS-CoV-2 M^pro (Severe acute respiratory syndrome coronavirus 2, UniProt P0DTD1). Particulars: ref Zhu and Xie, 2020; cited from earlier work.
For data set [2] the following is noted: after the intake of 150 mg in 1 h; ref de Whalley et al., 1990; Olthof et al., 2000; cited from earlier work.
The target of data set [3] is T1, SARS-CoV-2 M^pro. Briefly: Inhibition assay of the SARS-CoV-2 M^pro activity. Format: biochemical.

Regarding `O=C(O[C@@H]1Cc2c(O)cc(O)cc2O[C@@H]1c1cc(O)c(O)c(O)c1)c1cc(O)c(O)c(O)c1` [EGCG, epigallocatechin gallate, reference compound], the “Concentration at which inhibition of HCoV-229E replication starts” value (from here on “Concentration at which inhibition”) in the data set with HCoV-229E worked out at 2.5 µM. On SARS-CoV-2 M^pro [1], the “Inhibition of the SARS-CoV-2 M^pro activity” value is recorded as “effectively inhibited”.

Consider `O=c1c(O)c(-c2ccc(O)c(O)c2)oc2cc(O)cc(O)c12` [Quercetin, quercetin], for which the “Quercetin concentration in plasma” value in data set [2] is 5.0 ± 1.0 µM. Also, in the data set with HCoV-229E, the “Concentration at which inhibition” value turned out to be 5.0 µM. The “Effect on HCoV-229E replication at 2.5 μM” value with HCoV-229E (Huh-7 cells, 2.5 μM) is given as “slightly reduce”. In addition, the “Inhibition of HCoV-229E replication at concentration higher than 10 μM” value with HCoV-229E (Huh-7 cells, higher than 10 μM) is “strongly inhibit”. The EC50 with HCoV-229E (Human coronavirus 229E, Huh-7, 24 h, read-out: EC50, inhibition of HCoV-229E replication) turned out to be 4.88 µM.

On to `C[C@@H]1O[C@@H](OC[C@H]2O[C@@H](Oc3c(-c4ccc(O)c(O)c4)oc4cc(O)cc(O)c4c3=O)[C@H](O)[C@@H](O)[C@@H]2O)[C@H](O)[C@H](O)[C@H]1O` [Rutin, rutin], for which the “Inhibitive effect on the M^pro activity at 100 μM” value at SARS-CoV-2 M^pro [3] is listed as “most effectiveness”.

Turning to `Oc1cc(O)c2c(c1)O[C@H](c1ccc(O)c(O)c1)[C@H](O)C2` [(−)-epicatechin], the “Inhibitive effect on the M^pro activity at 100 μM” value on SARS-CoV-2 M^pro [3] is “did not inhibit”. Besides, on SARS-CoV-2 M^pro [3] (range of concentrations from 0 to 200 μM), the “Inhibitory effect on the M^pro activity” value is “did not show an inhibitory effect”. Also, the “Concentration at which inhibition” value with HCoV-229E is 20 µM. For the same compound, at SARS-CoV-2 M^pro [1], the “Inhibition of the SARS-CoV-2 M^pro activity” value was “could not”.

On to `O=c1c(O[C@@H]2O[C@H](CO)[C@@H](O)[C@H](O)[C@H]2O)c(-c2ccc(O)c(O)c2)oc2cc(O)cc(O)c12` [Isoquercitrin, quercetin-3-O-glycoside], for which the “Concentration at which inhibition” value in the data set with HCoV-229E is 2.5 µM.
